Data as given in ChEMBL document CHEMBL1201862, “PubChem BioAssay data set” (2004).
Activity calls are given as the source filed them.

What was measured:
[1] = biological target: T1, DNA repair and recombination protein RAD54-like (Homo sapiens, UniProt Q92698); test: RAD54 Holliday junction migration blockers – biochemical, fluorescence, cherry-picked samples, dose series, confirmation (AID 651657); format: functional
T1 sequence (Q92698 whole entry): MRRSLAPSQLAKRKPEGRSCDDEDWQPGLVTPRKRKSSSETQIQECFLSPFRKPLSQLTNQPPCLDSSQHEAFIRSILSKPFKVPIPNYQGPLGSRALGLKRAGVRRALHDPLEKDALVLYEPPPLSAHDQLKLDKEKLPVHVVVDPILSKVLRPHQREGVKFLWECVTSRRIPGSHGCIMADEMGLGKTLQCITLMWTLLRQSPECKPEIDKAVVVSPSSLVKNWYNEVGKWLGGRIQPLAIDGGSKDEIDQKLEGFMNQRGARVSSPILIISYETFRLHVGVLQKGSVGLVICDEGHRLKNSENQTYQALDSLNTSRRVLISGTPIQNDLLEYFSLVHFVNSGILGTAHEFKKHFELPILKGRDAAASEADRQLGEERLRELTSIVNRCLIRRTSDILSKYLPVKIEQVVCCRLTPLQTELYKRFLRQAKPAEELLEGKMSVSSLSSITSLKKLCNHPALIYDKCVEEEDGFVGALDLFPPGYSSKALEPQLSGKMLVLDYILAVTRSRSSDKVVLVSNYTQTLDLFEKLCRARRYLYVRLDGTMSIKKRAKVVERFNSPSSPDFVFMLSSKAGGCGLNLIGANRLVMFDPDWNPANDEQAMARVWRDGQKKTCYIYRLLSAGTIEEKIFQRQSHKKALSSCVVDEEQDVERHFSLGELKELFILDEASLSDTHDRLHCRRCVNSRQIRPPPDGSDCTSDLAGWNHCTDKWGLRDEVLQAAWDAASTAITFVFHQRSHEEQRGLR

[2] = biological target: T2, Caspase-6 (Homo sapiens, UniProt P55212); test: inhibition of CASP6 peptide cleavage – biochemical, VEID-R110 fluorescence, cherry-pick, dose response (AID 720632)
T2 sequence (P55212 whole entry): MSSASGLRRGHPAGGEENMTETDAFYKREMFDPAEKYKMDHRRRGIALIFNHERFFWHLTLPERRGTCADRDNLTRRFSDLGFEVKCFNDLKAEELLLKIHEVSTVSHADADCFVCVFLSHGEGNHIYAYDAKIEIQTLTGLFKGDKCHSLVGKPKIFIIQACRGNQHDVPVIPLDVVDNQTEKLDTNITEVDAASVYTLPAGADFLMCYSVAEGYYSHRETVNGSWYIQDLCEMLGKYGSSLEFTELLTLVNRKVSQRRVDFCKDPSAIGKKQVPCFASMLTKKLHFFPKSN

[3] = biological target: T3, Leucine aminopeptidase (Plasmodium falciparum 3D7, UniProt Q8IL11); test: P. falciparum M17LAP inhibitors, primary screen, biochemical, fluorogenic H-Leu-NHMec substrate, 1536-well (AID 1619); format: functional
T3 sequence (Q8IL11 whole entry): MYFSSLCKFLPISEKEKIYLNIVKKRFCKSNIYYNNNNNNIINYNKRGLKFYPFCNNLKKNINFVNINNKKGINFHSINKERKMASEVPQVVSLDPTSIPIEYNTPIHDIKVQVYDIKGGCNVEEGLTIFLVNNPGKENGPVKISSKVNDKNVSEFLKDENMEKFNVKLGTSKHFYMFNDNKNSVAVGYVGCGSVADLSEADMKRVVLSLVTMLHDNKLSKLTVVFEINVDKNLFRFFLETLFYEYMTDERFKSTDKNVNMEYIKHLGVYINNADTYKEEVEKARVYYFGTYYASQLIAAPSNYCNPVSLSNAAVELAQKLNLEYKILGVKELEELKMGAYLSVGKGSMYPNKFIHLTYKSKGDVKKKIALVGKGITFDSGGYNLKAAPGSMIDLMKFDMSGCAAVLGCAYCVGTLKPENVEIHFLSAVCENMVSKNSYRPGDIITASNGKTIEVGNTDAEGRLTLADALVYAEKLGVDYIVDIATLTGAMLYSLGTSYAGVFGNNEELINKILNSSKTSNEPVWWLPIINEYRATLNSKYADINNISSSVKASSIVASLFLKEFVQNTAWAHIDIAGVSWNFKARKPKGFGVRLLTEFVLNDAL

[4] = biological target: T4, Aspartyl aminopeptidase (Plasmodium falciparum 3D7, UniProt Q8I2J3); test: Counterscreen for inhibitors of M1 and M17 aminopeptidases: QFRET-based biochemical high throughput dose response assay for inhibitors of the Plasmodium falciparum M18 Aspartyl Aminopeptidase (PFM18AAP). [Related PubChem assays: 1619 (Screening assay (M17LAP inhibitors).), 1445 (Screening assay (M1AAP inhibitors).)]
T4 sequence (Q8I2J3 whole entry): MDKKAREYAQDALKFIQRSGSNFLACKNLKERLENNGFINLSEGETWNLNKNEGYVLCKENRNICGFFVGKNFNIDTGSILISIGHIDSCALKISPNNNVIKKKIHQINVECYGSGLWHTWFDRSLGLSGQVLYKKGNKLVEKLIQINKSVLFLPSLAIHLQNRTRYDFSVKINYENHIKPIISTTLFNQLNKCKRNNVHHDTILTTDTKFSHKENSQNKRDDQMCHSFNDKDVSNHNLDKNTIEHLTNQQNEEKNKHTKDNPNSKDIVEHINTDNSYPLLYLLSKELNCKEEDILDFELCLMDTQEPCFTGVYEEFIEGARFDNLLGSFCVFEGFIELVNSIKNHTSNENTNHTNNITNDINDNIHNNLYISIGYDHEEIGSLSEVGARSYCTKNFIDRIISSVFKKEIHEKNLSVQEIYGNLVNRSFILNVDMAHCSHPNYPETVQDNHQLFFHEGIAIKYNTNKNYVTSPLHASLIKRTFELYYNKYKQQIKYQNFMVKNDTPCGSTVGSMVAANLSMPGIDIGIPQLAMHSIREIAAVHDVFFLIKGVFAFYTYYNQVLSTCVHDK

[5] = biological target: Procathepsin L (Homo sapiens, UniProt P07711); test: CTSL1 protease inhibition – biochemical, QFRET, 1536-well, counter-screen for M1/M17 aminopeptidase inhibitor project, dose response (AID 2214)
[6] = biological target: T5, Estrogen receptor (Homo sapiens, UniProt P03372);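 also: potency for inhibiting coactivator peptide recruitment to the receptor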
T5 sequence (P03372 whole entry): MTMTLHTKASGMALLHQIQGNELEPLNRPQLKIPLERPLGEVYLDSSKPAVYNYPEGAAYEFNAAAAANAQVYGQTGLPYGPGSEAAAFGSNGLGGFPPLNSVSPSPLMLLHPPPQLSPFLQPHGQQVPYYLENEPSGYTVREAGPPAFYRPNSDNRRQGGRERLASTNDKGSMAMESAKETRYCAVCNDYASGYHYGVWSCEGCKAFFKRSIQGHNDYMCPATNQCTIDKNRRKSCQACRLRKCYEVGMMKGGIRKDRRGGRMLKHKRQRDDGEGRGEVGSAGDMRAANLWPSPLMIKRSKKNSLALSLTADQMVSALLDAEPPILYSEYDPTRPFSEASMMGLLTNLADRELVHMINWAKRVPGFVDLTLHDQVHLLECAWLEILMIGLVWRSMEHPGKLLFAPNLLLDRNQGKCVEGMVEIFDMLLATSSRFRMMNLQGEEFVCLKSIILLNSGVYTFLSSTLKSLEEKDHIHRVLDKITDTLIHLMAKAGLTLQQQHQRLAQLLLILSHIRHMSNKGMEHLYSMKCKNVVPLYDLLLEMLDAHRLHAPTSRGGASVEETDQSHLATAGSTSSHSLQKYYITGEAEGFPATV

[7] = biological target: Estrogen receptor beta (Homo sapiens, UniProt Q92731);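 also: recombinant ER-beta bound to coactivator SRC1 peptide in presence of estradiol agonist; inhibitors block coactivator peptide binding and lower the FRET signal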
[8] = A Cell Based Secondary Assay To Explore Cytotoxicity of Compounds that Sensitize Mycobacterium Tuberculosis to Beta-Lactam Antibiotics.; format: functional
[9] = Luminescence Cell-Based Dose Retest to Confirm Inhibitors of Cancer Stem Cells. [Related pubchem assays (depositor defined):AID2717, AID2721]; format: functional; settings: Homo sapiens
[10] = biological target: Disintegrin and metalloproteinase domain-containing protein 17 (Homo sapiens, UniProt P78536); test: inhibition of ADAM17 substrate cleavage – biochemical, quenched FRET substrate, counter-screen for ADAM10 exosite inhibitor project, dose response (AID 743253)
[11] = biological target: T6, Long-chain-fatty-acid--AMP ligase FadD28 (Mycobacterium tuberculosis, UniProt P9WQ59); test: Fluorescence polarization aasay to screen for inhibitors that compete for the binding of FadD28 to a bisubstrate Measured in Biochemical System Using Plate Reader - 2147-01_Inhibitor_Dose_CherryPick_Activity.; format: functional, Mycobacterium tuberculosis H37Rv
T6 sequence (P9WQ59 whole entry): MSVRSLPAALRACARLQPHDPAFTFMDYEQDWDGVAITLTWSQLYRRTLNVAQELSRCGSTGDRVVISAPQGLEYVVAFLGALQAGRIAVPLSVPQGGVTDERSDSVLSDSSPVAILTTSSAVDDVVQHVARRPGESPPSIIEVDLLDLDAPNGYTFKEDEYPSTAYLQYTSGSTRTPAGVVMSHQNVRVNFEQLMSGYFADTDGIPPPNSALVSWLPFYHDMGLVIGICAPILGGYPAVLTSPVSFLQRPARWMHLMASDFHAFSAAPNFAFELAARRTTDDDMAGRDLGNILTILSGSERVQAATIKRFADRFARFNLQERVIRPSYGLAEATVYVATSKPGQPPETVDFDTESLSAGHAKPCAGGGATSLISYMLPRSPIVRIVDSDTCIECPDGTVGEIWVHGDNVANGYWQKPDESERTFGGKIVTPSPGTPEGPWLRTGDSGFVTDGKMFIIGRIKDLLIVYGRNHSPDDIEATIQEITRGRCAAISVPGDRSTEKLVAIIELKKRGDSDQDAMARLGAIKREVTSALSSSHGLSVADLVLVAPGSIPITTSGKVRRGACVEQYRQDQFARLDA

[12] = biological target: T7, Ubiquitin-conjugating enzyme E2 N (Homo sapiens, UniProt P61088); format: functional;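 also: Dose-response confirmation in a TR-FRET assay detecting UBC13-driven polyubiquitin chain formation, inhibition measured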
T7 sequence (P61088 whole entry): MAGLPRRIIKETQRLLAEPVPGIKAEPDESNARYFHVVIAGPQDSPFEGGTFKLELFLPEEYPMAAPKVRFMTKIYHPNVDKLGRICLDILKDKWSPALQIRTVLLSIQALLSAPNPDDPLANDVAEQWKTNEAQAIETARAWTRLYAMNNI

Chain of Procathepsin L (P07711 whole entry): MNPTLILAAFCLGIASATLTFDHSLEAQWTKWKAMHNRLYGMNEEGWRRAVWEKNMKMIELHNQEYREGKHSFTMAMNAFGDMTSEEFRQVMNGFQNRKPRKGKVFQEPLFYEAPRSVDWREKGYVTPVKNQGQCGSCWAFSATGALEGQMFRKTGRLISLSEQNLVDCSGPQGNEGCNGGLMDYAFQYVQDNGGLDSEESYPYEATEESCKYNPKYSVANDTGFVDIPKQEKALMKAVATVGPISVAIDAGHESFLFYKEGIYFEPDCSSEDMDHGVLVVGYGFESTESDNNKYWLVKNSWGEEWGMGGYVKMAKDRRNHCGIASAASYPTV
Chain of Disintegrin and metalloproteinase domain-containing protein 17 (P78536 whole entry, the tested form may be a part): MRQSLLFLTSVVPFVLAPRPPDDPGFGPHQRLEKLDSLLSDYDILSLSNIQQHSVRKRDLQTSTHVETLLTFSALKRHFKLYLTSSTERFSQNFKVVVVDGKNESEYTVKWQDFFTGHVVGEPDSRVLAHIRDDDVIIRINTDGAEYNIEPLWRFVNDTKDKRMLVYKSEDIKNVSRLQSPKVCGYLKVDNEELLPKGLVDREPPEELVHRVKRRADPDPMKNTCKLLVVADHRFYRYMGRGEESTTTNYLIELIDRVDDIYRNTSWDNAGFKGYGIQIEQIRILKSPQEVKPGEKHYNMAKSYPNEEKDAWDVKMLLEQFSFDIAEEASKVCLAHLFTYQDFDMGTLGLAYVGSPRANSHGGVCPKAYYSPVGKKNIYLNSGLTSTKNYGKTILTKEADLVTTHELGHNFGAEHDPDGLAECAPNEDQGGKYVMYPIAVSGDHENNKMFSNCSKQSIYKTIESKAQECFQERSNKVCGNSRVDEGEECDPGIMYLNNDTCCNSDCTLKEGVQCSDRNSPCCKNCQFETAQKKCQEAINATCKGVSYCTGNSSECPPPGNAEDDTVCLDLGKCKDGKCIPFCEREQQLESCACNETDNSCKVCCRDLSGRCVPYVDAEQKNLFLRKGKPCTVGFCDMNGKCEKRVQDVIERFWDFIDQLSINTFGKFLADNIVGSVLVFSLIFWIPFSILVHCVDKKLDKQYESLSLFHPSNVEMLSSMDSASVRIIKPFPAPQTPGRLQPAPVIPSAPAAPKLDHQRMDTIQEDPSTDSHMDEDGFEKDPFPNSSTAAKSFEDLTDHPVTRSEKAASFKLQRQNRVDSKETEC
Chain of Estrogen receptor beta (Q92731 whole entry): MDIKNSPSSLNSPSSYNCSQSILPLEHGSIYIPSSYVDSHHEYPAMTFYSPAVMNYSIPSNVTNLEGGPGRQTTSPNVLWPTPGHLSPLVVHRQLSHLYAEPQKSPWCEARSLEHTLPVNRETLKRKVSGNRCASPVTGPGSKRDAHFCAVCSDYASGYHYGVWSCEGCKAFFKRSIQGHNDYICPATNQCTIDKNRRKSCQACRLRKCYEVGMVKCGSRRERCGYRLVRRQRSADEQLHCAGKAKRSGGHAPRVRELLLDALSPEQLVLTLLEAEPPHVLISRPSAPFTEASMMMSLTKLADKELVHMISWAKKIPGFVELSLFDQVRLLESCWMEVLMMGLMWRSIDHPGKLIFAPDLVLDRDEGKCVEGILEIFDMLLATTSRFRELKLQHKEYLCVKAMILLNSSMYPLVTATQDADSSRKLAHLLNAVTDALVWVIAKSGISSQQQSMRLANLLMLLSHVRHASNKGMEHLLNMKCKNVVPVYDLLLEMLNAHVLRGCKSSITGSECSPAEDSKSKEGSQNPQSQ

CCCCN(C)CCN=C(S)Nc1ccc2nc(N3CCN(CC)CC3)cc(C)c2c1
AC50 [1]: 16.2 µM (active)

O=C(O)[C@@H]1[C@@H](CO)[C@@H]2Cn3c(ccc(/C=C/c4ccccc4)c3=O)[C@@H]2N1Cc1ccc2c(c1)OCO2
AC50 [2]: 41.3 µM (active)

COc1cc(NC(=O)CSc2nnc3c(C)cc4cc(C)cc(C)c4n23)c(C(=O)O)cc1OC
IC50 [3]: 6 µM (active)
IC50 [4]: > 73.5 µM (not active)
IC50 [5]: > 59.6 µM (not active)

COC(=O)c1cnn2c(C(F)(F)F)cc(-c3ccco3)nc12
IC50 [6]: 42.4 µM (not active)
IC50 [7]: 25.9 µM (active)

Cc1ccc(C(=O)Nc2ccc(N3CCN(C(=O)c4cccs4)CC3)cc2)c(Cl)c1
CC50 [8]: > 40 µM (active)

Cn1c(=O)c(C(=O)COC(=O)c2cc(C3CC3)nc3ccccc23)c(N)n(Cc2ccccc2)c1=O
CC50 [8]: > 40 µM (active)

O=C1CC(N(CCc2ccccc2)C(=S)Nc2cc(Cl)ccc2Cl)C(=O)N1c1c(Cl)cccc1Cl (stereo unspecified)
AC50 [9]: 1.61 µM (active)
IC50 [10]: > 69.5 µM (inactive)

COc1ccc(/C=C2\SC(=O)N(CC(=O)Nc3cccnc3)C2=O)cc1OC
AC50 [11]: 32 µM (inactive)

O=C(NC1CCS(=O)(=O)C1)c1c(NC(=O)C2COc3ccccc3O2)sc2c1CCCC2 (stereo unspecified)
IC50 [6]: > 50 µM (not active)

O=C(NN1C(=O)/C(=C/c2cccc(O)c2)SC1=S)c1ccccc1O
AC50 [11]: 66.2 µM (active)

Cc1nc2c(C(=O)NCCC3=CCCCC3)cnn2c(O)c1Cl
AC50 [11]: > 100 µM (inactive)

COc1cc(SC)ccc1C(=O)OC(C)C(=O)NC1CCCC1 (stereo unspecified)
AC50 [2]: 24.6 µM (active)

CC(N)C(=O)NC(C(=O)NC(C)C(=O)Nc1cccc2ccccc12)C(C)C (stereo unspecified)
AC50 [2]: 10.7 µM (active)

O=C(O)C1CC=CCC1C(=O)Nc1cc(Cl)ccc1Cl (stereo unspecified)
IC50 [3]: 6.22 µM (active)
IC50 [4]: > 73.5 µM (not active)
IC50 [5]: > 59.6 µM (not active)

CCOc1ccc(NC(=O)Nc2cccs2)cc1
IC50 [3]: 3.22 µM (active)
IC50 [4]: > 73.5 µM (not active)
IC50 [5]: > 59.6 µM (not active)

CC1CCCCN1CCNC(=O)c1cc2c(=O)n(C)c3ccccc3c2n1C (stereo unspecified)
IC50 [12]: > 20 µM (inactive)
AC50 [1]: 33 µM (active)

CC1(C)Cc2c(C#N)c(SCc3ccccc3)nc(N3CCOCC3)c2CO1
CC50 [8]: > 40 µM (active)
